From US20190345202A1, “ANDROGEN RECEPTOR ANTISENSE OLIGONUCLEOTIDES” (OliPass Corporation, priority 2016, published 2019) come the findings set out here.

The subject of one data set is 10-mer complementary DNA. As to the kind of experiment: Tm of duplex between PNA and 10-mer complementary DNA (UV/Vis). The note with it: 4 μM PNA and 4 μM 10-mer DNA, aqueous buffer pH 7.16, 10 mM sodium phosphate, 100 mM NaCl. Type of data set: binding. As to the method:
The PNA derivatives in Table 1 were evaluated for their binding affinity for 10-mer DNAs complementarily targeting either the N-terminal or C-terminal. The binding affinity was assessed by Tm value for the duplex between PNA and 10-mer complementary DNA. The duplex between PNA derivatives in Table 1 and fully complementary DNAs show Tm values too high to be reliably determined in aqueous buffer solution, since the buffer solution tends to boil off during the Tm measurement.
Tm values were determined on an UV/Vis spectrometer as follows. A mixed solution of 4 μM PNA oligomer and 4 μM complementary 10-mer DNA in 4 mL aqueous buffer (pH 7.16, 10 mM sodium phosphate, 100 mM NaCl) in 15 mL polypropylene falcon tube was incubated at 90° C. for a minute and slowly cooled down to ambient temperature over several minutes. Then the solution was transferred into a 3 mL quartz UV cuvette equipped with an air-tight cap, and subjected to a Tm measurement at 260 nm on an Agilent 8453 UV/Visible spectrophotometer or a similar one as described in the prior art [PCT/KR2009/001256] or with minor modifications. The 10-mer complementary DNAs for Tm measurement were purchased from Bioneer (www.bioneer.com, Dajeon, Republic of Korea) and used without further purification.

A further data set concerns C57BL/6 mice. As to the kind of experiment: Hair growth in C57BL/6 mice upon topical administration (brightness score, hair weight). Type of data set: in vivo, mouse. As to the method: [Hair Removal and Grouping] In Day 0, 7 week old female C57BL/6 mice were anesthetized with zoletil/rompun, and the hair in the back was cut and removed with a clipper and wax, respectively. Mice with flawless (i.e. spotless) hair removal were selected and randomly assigned into three groups (7 animals per group).
[Topical Administration] The topical solutions of “ASO 1” were prepared by diluting a mother stock solution of “ASO 1” to 0.2 fM or 1 fM in aqueous 30% (v/v) ethanol supplemented with 3% (v/v) glycerin. About 100 μL of 0 (negative control), 0.2, or 1 fM “ASO 1” was topically administered in the back of each animal using a cotton ball in Days 3, 7, 10, and 14.
[Digital Image Scoring for Hair Growth] For scoring the hair growth, the animals were anesthetized and photographed by group as shown in FIG. 11A using a digital camera at a fixed value of exposure time and illumination. The digital image for the area of the hair removal for each animal was selected and digitally scored for the average brightness over the selected area using “ImageJ” program. Lower brightness score is taken as faster hair growth. Brightness scores of individual animals were combined by group, and subjected to statistical analysis by student's t-test. FIG. 11B summarizes the relative brightness scores of the ASO treated groups against the control group. The relative brightness score tended to decrease with days in the treatment groups. […] Thus, “ASO 1” was concluded to promote hair growth upon topical administrations at 1 fM.
[Scoring by Hair Weight] In Day 21, the animals were anesthetized and the hair in the back was cut with a clipper. The hair samples from individual animals were combined by group, and weighed to evaluate the hair growth between Day 0 and Day 21. The average hair weight was 70.5 mg/animal for the control group, 90.8 mg/animal for the 0.2 fM treatment group, and 94.4 mg/animal for the 1 fM treatment group. Thus “ASO 1” was concluded to promote hair growth upon topical administrations at 0.2 fM as well as 1 fM.
[Hair Removal and Grouping] In Day 0, 7 week old female C57BL/6 mice were anesthetized with zoletil/rompun, and the hair in the back was cut and removed with a clipper and wax, respectively. Mice with flawless (i.e. spotless) hair removal were selected and randomly assigned into three groups (10 animals per group).
[Topical Administration] The topical solutions of “ASO 5” were prepared by diluting a mother stock solution of “ASO 5” to 1, 5, or 25 fM in aqueous 30% (v/v) ethanol supplemented with 3% (v/v) glycerin. About 100 μL of each ASO solution or vehicle (negative control) was topically administered to in the back of an animal using a cotton ball in Days 3, 7, 10, 14 and 21.
Following the shaving in Day 21, the animals received a single topical administration of either vehicle or “ASO 5” at 1 fM, 5 fM, or 25 fM. In Day 53, the hair in the back was collected by shaving with a clipper to determine the total amount of hair growth between Days 21 and 53. The average hair weights of the 1 fM, 5 fM, and 25 fM groups were 1,630%, 1,450%, and 771% of the non-treated group, respectively. Thus “ASO 5” was concluded to promote hair growth upon topical administrations at 1 to 25 fM.
[Hair Removal and Grouping] In Day 0, 7 week old female C57BL/6 mice were anesthetized with zoletil/rompun, and the hair in the back was cut and removed with a clipper and wax, respectively. Mice with flawless (i.e. spotless) hair removal were selected and randomly assigned into three groups (9 animals per group).
[Topical Administration] The topical solutions of “ASO 10” were prepared by diluting a mother stock solution of “ASO 10” to 1, 5, or 25 fM in aqueous 30% (v/v) ethanol supplemented with 3% (v/v) glycerin. About 100 μL of each ASO solution or vehicle (negative control) was topically administered to in the back of an animal using a cotton ball in Day 2.

In the next data set the test system is human AR mRNA. As to the kind of experiment: qPCR (SYBR Green) of AR mRNA level in MCF7 cells. As to conditions: 5 hours.

[C(1O2)] = PNA monomer with modified cytosine C(1O2), structure; [A(5)] = PNA monomer with modified adenine A(5), structure; {Fethoc} = Fethoc group on PNA N-terminus; {NH2} = C-terminal amide

Take “Fethoc-C(1O2)TT-A(5)CC-A(5)GG(6)-CA(5)A-NH2 (antisense CTTACCAGGCAA; N-Fethoc, C-terminal amide, chemistry not fully specified) [ASO 10]”: in the data set with 10-mer complementary DNA, the “Tm Value, 10-mer DNA against C-Terminal” value came to 78.4 °C. In addition, the “Tm Value, 10-mer DNA against N-Terminal” value in the data set with 10-mer complementary DNA is 84.4 °C. Besides, the average hair weight with C57BL/6 mice (1 fM topical in Day 2, hair growth between Day 0 and Day 27) is given as 115 % of the non-treated group; in the data set on C57BL/6 mice (5 fM topical in Day 2, hair growth between Day 0 and Day 27) it was 114 % of the non-treated group; in the data set with C57BL/6 mice (25 fM topical in Day 2, hair growth between Day 0 and Day 27) it was 119 % of the non-treated group. Further, the “brightness score vs non-treatment group” value in the data set on C57BL/6 mice (Day 27, 1 fM and 5 fM groups, topical in Day 2) is recorded as “significantly lower”. Besides, in the data set on human AR mRNA (1 zM to 1,000 zM), the “decrease of relative expression level of exons 4-6” value is 60-80%.

Take “Fethoc-C(1O2)TT-A(5)CC-A(5)GG-C(1O2)AA(5)-G-NH2 (antisense CTTACCAGGCAAG; all peptide nucleic acid (PNA), [C(1O2)] at 1, 10, [A(5)] at 4, 7, 12, 5' {Fethoc}, 3' {NH2}; peptide nucleic acid, written N to C terminus) [ASO 5]”: the “Tm Value, 10-mer DNA against C-Terminal” value in the data set on 10-mer complementary DNA worked out at 81.3 °C. The “Tm Value, 10-mer DNA against N-Terminal” value in the data set on 10-mer complementary DNA stood at 86.1 °C. The average hair weight is reported as 293 % of the negative control group in the data set with C57BL/6 mice (1 fM topical, hair growth between Day 0 and Day 21); 1,630 % of the non-treated group with C57BL/6 mice (1 fM, single topical administration after shaving in Day 21, hair growth between Days 21 and 53); 306 % of the negative control group in the data set on C57BL/6 mice (5 fM topical, hair growth between Day 0 and Day 21); 1,450 % of the non-treated group with C57BL/6 mice (5 fM, single topical administration after shaving in Day 21, hair growth between Days 21 and 53); 278 % of the negative control group in the data set with C57BL/6 mice (25 fM topical, hair growth between Day 0 and Day 21); 771 % of the non-treated group in the data set with C57BL/6 mice (25 fM, single topical administration after shaving in Day 21, hair growth between Days 21 and 53). Moreover, in the data set with C57BL/6 mice (Day 17, 1 fM and 25 fM groups, topical in Days 3, 7, 10, 14 and 21), the “brightness score vs non-treated group” value was “significantly lower”. The “exon message levels (exons 4-6) relative to negative control” value in the data set on human AR mRNA (1 aM) is “rebounded to near the levels of the negative control”. Also, the “decrease of exon message levels (exons 4-6)” value in the data set on human AR mRNA (100 zM) lay in the range of 50 to 60%.
